Columns and labels:
C3H mice = assay: Hair growth test using C3H mice; assay type: in vivo, mouse; details: for effects on hair growth compared to positive control group: 0.01 weight % solution once a day vs 3% minoxidil preparation (Mynoxyl)
Experimental: A 6-week C3H mouse was purchased, and the hair on a dorsal part of the mouse was partially removed. Then, hair removal cream was applied to the dorsal part to completely remove the existing hair. A mouse of which the hair was not completely removed was excluded from the test. After finishing the hair removal, 5 mice were randomly bred per cage, and a total of 5 cages were used.
The mice were left one day or so after finishing depilation, and a test compound, which was prepared by dissolving O-C-P1P of Example 4 and N-C-P1P of Example 5 in a mixed solution of ethanol and ethoxydiglycol (9:1, v/v) to a concentration of 0.01 weight %, was applied once a day to the area from which the hair was removed. A negative control group was prepared by applying a mixed solution of ethanol and ethoxydiglycol without using the test compound, and a positive control group was 3% minoxidil preparation (Mynoxyl, Hyundai Pharm). After applying samples to the area from which the hair was removed, images of the area captured at the 14th and 18th days are shown in FIG. 3. […]

human fibroblasts = assay: Cell proliferation by MTT assay; assay type: cell-based; details: for Cell Viability (%): MTT, 0 = 100; for cell proliferation, result in words: summary of Table 4
Experimental: (§1) To measure anti-wrinkle effects of N-C-P1P and O-C-P1P, effects of human fibroblasts on cell proliferation were measured via an MTT (3-[4,5-dimethylthiazol-2-yl]-2,5-diphenyltetrazolium bromide) assay. To observe collagen synthesis, procollagent type I, which is produced in human fibroblasts (e.g., dermal cells), were measured.
To measure cell proliferation, human fibroblasts were cultured for 24 hours in a Dulbecco's modified eagle medium (DMEM) medium supplemented with 10% FBS and 100 unit/mL of penicillin/streptomycin. The culture circumstances comprising culturing in a 5% CO2 incubator maintained at a temperature of 37° c. Then, after removing the medium therefrom, N-C-P1P and O-C-P1P were added thereto at different concentrations. The MTT assay was performed to measure effects of N-C-P1P and O-C-P1P on cell proliferation, and the results are summarized in Table 4.

procollagen type I = assay: Collagen synthesis, procollagen type I C-peptide EIA kit; assay type: cell-based; details: human fibroblasts; for Collagen synthesis (%): 24 hours, serum free medium, 0 = 100; for synthesis of collagen, result in words: summary of Table 5
Experimental: as §1
To measure collagen synthesis, the human fibroblasts (e.g., dermal cells) were cultured in the same conditions as above for 24 hours. After removing the medium therefrom, a new serum free medium was substituted. […] The culture medium was used to measure amounts of synthesized collagen by using a procollagen type I C-peptide EIA kit, and the results measured therefrom are shown in Table 5 below.

[1] = 0.01 weight % in ethanol/ethoxydiglycol (9:1, v/v), applied once a day to depilated area, images at 14th and 18th days, FIG. 3

| SMILES | effects on hair growth compared to negative control group (C3H mice; 0.005, 0.01 and 0.02 weight % solutions, images at 13th and 17th days, FIG. 5) | difference in effects on hair growth among concentrations (C3H mice; 0.005 weight %, 0.01 weight % and 0.02 weight %, FIG. 5) | effects on hair growth compared to negative control group (C3H mice; [1]) | effects on hair growth compared to positive control group (C3H mice; FIG. 3) | effects on hair growth compared to negative control group (C3H mice; liposomes containing O-C-P1P of Examples 6 and 7, once a day for 3 weeks, FIG. 4) | concentration giving the same effects on hair growth, times as low as the concentration of minoxidil (C3H mice; vs 3% minoxidil preparation) | Cell Viability (%) (human fibroblasts; concentration 0.002%) | Cell Viability (%) (human fibroblasts; concentration 0.004%) | Cell Viability (%) (human fibroblasts; concentration 0.008%) | Cell Viability (%) (human fibroblasts; concentration 0.016%) | cell proliferation, result in words (human fibroblasts) | Collagen synthesis (%) (procollagen type I; concentration 0.1 μM) | Collagen synthesis (%) (procollagen type I; concentration 1 μM) | synthesis of collagen, result in words (procollagen type I) |
| --- | --- | --- | --- | --- | --- | --- | --- | --- | --- | --- | --- | --- | --- | --- |
| CCCCCCCCCCCCCC[C@@H](O)[C@H]1OP(=O)(O)OC[C@@H]1N [O-C-P1P, O-cyclic phytospingosine-1-phosphate] | significant effects on hair growth | no significant different | rapid growth of hair | effects on faster hair growth were shown better | significant effects on hair growth | about 300 times | 128 | 135 | 143 | 160 | promoting cell proliferation | 120 | 140 | promoting synthesis of collagen |
| CCCCCCCCCCCCCC[C@@H](O)[C@@H](O)[C@@H]1COP(=O)(O)N1 [N-C-P1P, N-cyclic phytospingosine-1-phosphate] |  |  | significantly better | quite less |  |  | 120 | 110 | 110 | 125 | promoting cell proliferation | 110 | 125 | promoting synthesis of collagen |

Source: US20160046656A1, “NOVEL PHYTOSPHINGOSINE-1-PHOSPHATE DERIVATIVE, PREPARATION METHOD THEREFOR, AND COMPOSITION FOR PREVENTING AND TREATING HAIR LOSS OR FOR GROWING HAIR COMPRISING SAME” (PHYTOS CO., LTD., priority 2013, published 2016)
